Results as given in patent US20250326933A1, “SOLID COMPOSITION OF INDOCYANINE GREEN AND SODIUM FLUORESCEIN” (ICROM Srl, priority 2021, published 2025).

Legend:
[1] = Solubility in water evaluated by filtration of the solution on a syringe filter; format: physicochemical
[2] = aqueous solution; cited from earlier work
[3] = Stability of the compounds of formula (IA) and (IB) and of their solid composition by HPLC; format: physicochemical; details: for Stability by HPLC as such and after freeze-drying: (IA) with or without iodide
Method: The formulations from 13 to 18 and the compounds used for the preparation thereof were analysed with the following analytical method. The analysis confirms that the purity of IA >99.5% injected as such and the stability of the formulation after freeze-drying, evaluated based on the fact that there is no other peak in the chromatogram except for Ia and Ib.
Sample solution: 1.5 mg/ml in methanol. Inject immediately after preparing the solution. The mixtures of formula (IA) and (IB) described in Table 2 were prepared and then appropriately diluted and injected in HPLC to evaluate the profile at T0.
The same mixtures were re-prepared exactly as described in the experimental part, dry frozen and controlled in HPLC after freeze-drying, 7 days later. During these 7 days the samples were stored inside their amber glass vials in a protective atmosphere at room temperature. The freeze-dried products were dissolved in water at the same dilution as the not freeze-dried samples.
The stability of the freeze-dried powders stored in the vials was evaluated using HPLC even after 6 months. The freeze-dried products are stable, even without the presence of sodium iodide, formulation 9.
The reconstituted solution was stable if stored at 4-10° C. for at least 24 hours (formulations 1, 3, 5 and 7).

[4] = after intravenous administration; cited from earlier work
[5] = freeze-dried, 10 mg/ml in water
[6] = not freeze-dried, 5 mg/ml in water
[7] = not freeze-dried, 10 mg/ml in water

Structure (SMILES)	Filtration on 0.45 μm syringe filter: Pressure ([1]; freeze-dried, 5 mg/ml in water)	Filtration on 0.45 μm syringe filter: ml filtered ([1]; freeze-dried, 5 mg/ml in water) [mL]	Filtration on 0.45 μm syringe filter: Pressure [1, 5]	Filtration on 0.45 μm syringe filter: ml filtered [1, 5] [mL]	Filtration on 0.45 μm syringe filter: Pressure [1, 6]	Filtration on 0.45 μm syringe filter: ml filtered [1, 6] [mL]	Filtration on 0.45 μm syringe filter: Pressure [1, 7]	Filtration on 0.45 μm syringe filter: ml filtered [1, 7] [mL]	Decomposition when dissolved in water [2]	Stability by HPLC as such and after freeze-drying [3]	Degradation by freeze-drying (HPLC) ([3]; as such or in mixture with (IB), with or without sodium iodide)	Time to complete removal by the kidneys [4] [h]
CC1(C)C(/C=C/C=C/C=C/C=C2\N(CCCCS(=O)(=O)[O-])c3ccc4ccccc4c3C2(C)C)=[N+](CCCCS(=O)(=O)[O-])c2ccc3ccccc3c21.[Na+] [069/079]	Low	10	Low	10	Block	0	Block	0				
CC1(C)C(/C=C/C=C/C=C/C=C2\N(CCCCS(=O)(=O)[O-])c3ccc4ccccc4c3C2(C)C)=[N+](CCCCS(=O)(=O)[O-])c2ccc3ccccc3c21.[Na+] [compound of formula (IA), 1H-benz[e]indole, 2-[7-[1,3-dihydro-1,1-dimethyl-3-(4-sulfobutyl)-2H-benz[e]indol-2-ylidene]-1,3,5-heptatrienyl]-1,1-dimethyl-3-(4-sulfobutyl) hydroxide, inner salt, sodium salt]									non-detectable decomposition for a few hours	stable	does not degrade	
O=C([O-])c1ccccc1-c1c2ccc(=O)cc-2oc2cc([O-])ccc12.[Na+].[Na+] [compound of formula (IB), sodium fluorescein]										stable		24 to 36
